From ChEMBL document CHEMBL1201862, “PubChem BioAssay data set” (2004)
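Tested at 5 concentrations; 48 h exposure; 96-well plates; endpoints linearly interpolated, else capped at highest concentration. At the GI50, growth is halved.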 The source made the active and inactive calls. Rule as the data show it: active = GI50 up to about 1.1 µM and inactive = higher. Numbered stars: 1 amine (or outer) side, 2 acyl side, 3 side chain; on linkers, the order of the positions; unused ones are H or OH. Square brackets hold non-standard residues; d marks the D form. Peptide text beside a SMILES is read from it. X55 = CC[C@H](C)[C@H](OC(=O)[C@@H](C)[C@@H](CC)N[*:1])C(=O)[*:2]; X31 = C[C@H](N[*:1])C(=O)C(C)(C)C(=O)[*:2]; NMeY = CN[C@@H](Cc1ccc(O)cc1)C(=O)O; NMeL = CN[C@@H](CC(C)C)C(=O)O; NMeV = CN[C@H](C(=O)O)C(C)C

Assays:
Test in all cases: NCI anticancer screen, dose series, 48 h
BT-549 = tested on: BT-549
LXFL 529 = tested on: LXFL 529
SNB-78 = tested on: SNB-78
DMS-114 = tested on: DMS-114
HOP-18 = tested on: HOP-18
DLD-1 = tested on: DLD-1
XF498 = tested on: XF498
DMS-273 = tested on: DMS-273

With Cc1nc(-c2ccc([N+](=O)[O-])cc2)cn2c1nc1ccccc12 the GI50 (BT-549) was > 100 µM (inactive).
CC1CN=C(Nc2cccc(F)c2)S1 (stereo unspecified) was tested, and the GI50 (BT-549) was > 100 µM (inactive).
O=C1[C@@H]2C(c3ccc(Cl)cc3Cl)=NO[C@@H]2C(=O)N1c1ccc(Cc2ccc(N3C(=O)[C@H]4C(c5ccc(Cl)cc5Cl)=NO[C@H]4C3=O)cc2)cc1 was tested, and the GI50 (LXFL 529) was 15.6 µM (inactive), the GI50 (SNB-78) was 46.8 µM (inactive) and the GI50 (DMS-114) was 39.5 µM (inactive). The GI50 (HOP-18) was > 100 µM (inactive), the GI50 (DLD-1) was > 100 µM (inactive) and the GI50 (XF498) was > 100 µM (inactive). For the same compound, the GI50 (DMS-273) was > 100 µM (inactive).
Cc1cc(NS(=O)(=O)c2ccc(NC(=O)c3cccc4c(Nc5ccc(S(=O)(=O)Nc6cc(C)on6)cc5)c5ccccc5nc34)cc2)no1 was tested, and the GI50 (LXFL 529) was 24.7 µM (inactive), the GI50 (SNB-78) was 35.1 µM (inactive) and the GI50 (DMS-114) was 35.2 µM (inactive). For the same compound, the GI50 (HOP-18) was 19.4 µM (inactive), the GI50 (DLD-1) was > 100 µM (inactive) and the GI50 (XF498) was 42.3 µM (inactive). For the same compound, the GI50 (DMS-273) was > 100 µM (inactive).
In the case of Cc1cc(C)nc(NS(=O)(=O)c2ccc(Nc3c4ccccc4nc4c(C(=O)Nc5ccc(S(=O)(=O)N=C(N)N)cc5)ccc(Cl)c34)cc2)n1, the GI50 (LXFL 529) is reported as 25.8 µM (inactive), the GI50 (SNB-78) is reported as 33.7 µM (inactive) and the GI50 (DMS-114) is reported as 21.7 µM (inactive). For the same compound, the GI50 (HOP-18) was 18.7 µM (inactive), the GI50 (DLD-1) was 33.1 µM (inactive) and the GI50 (XF498) was 24 µM (inactive). The GI50 (DMS-273) was 32.1 µM (inactive).
COC(=O)/C(C#N)=C(\Nc1ccccc1)N1CCCCC1 was tested, and the GI50 (BT-549) was > 100 µM (inactive).
For COC1(OC)N=C(N)C2(C#N)C(c3ccccc3)NC3=C(CCC3)C12C#N (stereo unspecified), the GI50 (BT-549) was > 100 µM (inactive).
For Brc1c(C#CCC(c2ccccc2)(c2ccccc2)c2ccccc2)ccc(C#CCC(c2ccccc2)(c2ccccc2)c2ccccc2)c1Br, the GI50 (BT-549) was > 100 µM (inactive).
In the case of CC1=C2NCN(C)N=C2C(C#N)(C#N)C1(C#N)C#N, the GI50 (BT-549) is reported as 21.6 µM (inactive).
In the case of CC(C)CCOC(=O)NC(Nc1ccc(F)cc1)(C(F)(F)F)C(F)(F)F, the GI50 (BT-549) is reported as 9.75 µM (inactive).
In the case of CC(C)CCn1nc(N)c2nc3ccccc3nc21, the GI50 (BT-549) is reported as > 100 µM (inactive).
In the case of CC1=NN(C(=O)c2ccc(Cl)cc2)C(=O)/C1=C/c1ccco1, the GI50 (LXFL 529) is reported as > 100 µM (inactive), the GI50 (SNB-78) is reported as 46.1 µM (inactive) and the GI50 (DMS-114) is reported as > 100 µM (inactive). The GI50 (DLD-1) was > 100 µM (inactive) and the GI50 (XF498) was > 100 µM (inactive).
In the case of COc1ccc(C2CCC(Cl)(OC)CC2C=O)cc1 (stereo unspecified), the GI50 (LXFL 529) is reported as > 100 µM (inactive), the GI50 (DMS-114) is reported as 27.5 µM (inactive) and the GI50 (HOP-18) is reported as 68.9 µM (inactive). For the same compound, the GI50 (DLD-1) was 91.4 µM (inactive) and the GI50 (DMS-273) was 53.7 µM (inactive).
With CC1C2CC(C(S(=O)(=O)O)C2=O)C1(C)C (stereo unspecified) the GI50 (BT-549) was > 100 µM (inactive).
Cc1ccc(NC(=O)C2C(=O)C(=O)N(c3ccc(C)cc3)C2=O)cc1 (stereo unspecified) was tested, and the GI50 (LXFL 529) was > 100 µM (inactive), the GI50 (SNB-78) was > 100 µM (inactive) and the GI50 (DMS-114) was > 100 µM (inactive). The GI50 (HOP-18) was > 100 µM (inactive) and the GI50 (DLD-1) was > 100 µM (inactive).
CCOc1cc(C(=O)O)c2c(ccc3ccc(OC)c(OC)c32)c1OC was tested, and the GI50 (BT-549) was > 100 µM (inactive).
In the case of CCCCCCCCCCCCCCCCOCC(CC(F)(F)P(=O)(OCC)OCC)OC(C)=O (stereo unspecified), the GI50 (BT-549) is reported as 15.2 µM (inactive).
With O=C(NC(CO)CO)c1ccc2cc(C(=O)N3CC(CCl)c4ccc([N+](=O)[O-])cc43)[nH]c2c1 (stereo unspecified) the GI50 (BT-549) was > 100 µM (inactive).
In the case of CCOC(=O)/C(O)=C1\C(=O)N(C)C(=O)C1c1ccc(OC)c(OC)c1 (stereo unspecified), the GI50 (SNB-78) is reported as > 100 µM (inactive), the GI50 (DMS-114) is reported as > 100 µM (inactive) and the GI50 (HOP-18) is reported as > 100 µM (inactive). For the same compound, the GI50 (DLD-1) was > 100 µM (inactive), the GI50 (XF498) was > 100 µM (inactive) and the GI50 (DMS-273) was > 100 µM (inactive).
Cc1ccccc1C(=N)c1ccccc1Cc1cccc2ccccc12 was tested, and the GI50 (BT-549) was 33.2 µM (inactive).
In the case of CC(C)(C)N/N=N/c1cn(C2OC(CO)C(O)C2O)c(=O)[nH]c1=O (stereo unspecified), the GI50 (LXFL 529) is reported as > 100 µM (inactive), the GI50 (SNB-78) is reported as > 100 µM (inactive) and the GI50 (DMS-114) is reported as 40.3 µM (inactive). For the same compound, the GI50 (HOP-18) was > 100 µM (inactive), the GI50 (DLD-1) was 43.3 µM (inactive) and the GI50 (DMS-273) was > 100 µM (inactive).
In the case of CCOC(=O)C(C)c1nc2cc(F)c(N3CCOCC3)cc2[nH]c1=O (stereo unspecified), the GI50 (BT-549) is reported as > 100 µM (inactive).
In the case of COc1cc(COC(=O)N2CCCCC2C(=O)O)c([N+](=O)[O-])cc1OC (stereo unspecified), the GI50 (BT-549) is reported as > 100 µM (inactive).
For O=C1/C(=C/c2ccco2)N=C(c2ccccc2)N1c1cc2cc(Sc3ccccc3)ccc2[nH]1, the GI50 (BT-549) was 19.4 µM (inactive).
COc1cc(CCc2ccc(OC(C)=O)cc2)cc(OC)c1OC was tested, and the GI50 (LXFL 529) was > 100 µM (inactive), the GI50 (SNB-78) was > 100 µM (inactive) and the GI50 (DMS-114) was 55 µM (inactive). The GI50 (HOP-18) was > 100 µM (inactive), the GI50 (DLD-1) was > 100 µM (inactive) and the GI50 (DMS-273) was > 100 µM (inactive).
For Nc1ccc(-c2nc3ccc(F)cc3s2)cc1I, the GI50 (BT-549) was > 100 µM (inactive).
With CC[C@H](C)[C@@H]1OC(=O)[C@@H](C)[C@@H](CC)NC(=O)[C@H](C)NC(=O)C(C)(C)C(=O)[C@H](C)NC(=O)[C@H](Cc2ccc(OC)cc2)N(C)C(=O)[C@H](C(C)C)N(C)C(=O)CNC(=O)[C@H](CC(C)C)N(C)C(=O)CNC1=O [DOLASTATIN 11] (cyclo(A[X55]G[NMeL]G[NMeV][NMeY](Me)[X31])) the GI50 (LXFL 529) was < 0.0166 µM (active), the GI50 (SNB-78) was 0.0514 µM (active) and the GI50 (BT-549) was 0.091 µM (active). For the same compound, the GI50 (DMS-114) was < 0.0203 µM (active), the GI50 (HOP-18) was < 0.0118 µM (active) and the GI50 (DLD-1) was < 0.0361 µM (active). For the same compound, the GI50 (XF498) was 0.0248 µM (active) and the GI50 (DMS-273) was 0.01 µM (active).
In the case of c1ccc2c(c1)Sc1ccccc1N2CC1CN2CCC1CC2 (stereo unspecified) [MEQUITAZINE], the GI50 (BT-549) is reported as 14.5 µM (inactive).
C=C[C@H]1CN2CCc3c([nH]c4c([C@H]5CCCN5C)c(O)ccc34)[C@@H]2C[C@@H]1C[C@H]1c2[nH]c3ccccc3c2CCN1C [STRYCHNOPENTAMINE] was tested, and the GI50 (BT-549) was 1.94 µM (inactive).
